Test results as given in patent publication US12459951B2, “Compounds that interact with RAS superfamily proteins for treatment of cancers, inflammatory diseases, rasopathies, and fibrotic disease” (SHY Therapeutics, LLC, priority 2022, dated 2025).
pIC50: −log10 of the molar value.

Columns and labels:
KRas G12D mutant = test: Ras GTP Binding Domain Inhibition Assay (Ras Superfamily Assay); conditions: 20 μM compound; for KRas G12D mutant + SOS: % inh.: with SOS; for KRas G12D mutant: % inh.: without SOS
Method in brief: (§1)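 Binding of 100 nM fluorescent GTP (Cy3 or Cy5, 45 min, room temperature) was read after washes from plate-captured His-tagged protein. Beforehand, compounds at 20 μM or in dilution series for IC50 sat 3 h on the protein in Tris buffer pH 7.4 or 7.0 with 1% DMSO, Sos GEF optionally added for the last hour.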

KRas wild type = test: as above; conditions: 20 μM compound; for KRas wild type + SOS: % inh.: with SOS; for KRas wild type: % inh.: without SOS
Method in brief: as §1

Rac-1 = biological target: T1, Rac-1 (Homo sapiens, UniProt P63000); test: as above; conditions: read-out: Rac-1: % inh.
T1 construct: made in house
Method in brief: as §1

[1] = system: MiaPaca-2 (expressing KRAS G12C mutant); test: Proliferation Assay (Cell Viability Assay); assay type: cell-based; conditions: Homo sapiens, MIA PaCa-2; read-out: Proliferation in MiaPaca-2: IC50
Method in brief: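 MiaPaca-2 cells (KRAS G12C) were grown in DMEM-high glucose with 10% FBS, seeded at 2000–5000 cells/well and cultured overnight. Compounds were added at 10 μM final, or as serial dilutions for IC50, in 0.3% DMSO/10% FBS for 2–4 days at 37 °C, 5% CO2. Viability was measured with CellTiter 96 Aqueous One and % inhibition calculated.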

KRas G12D mutant + SOS: % inh. (KRas G12D mutant)	KRas G12D mutant: % inh. (KRas G12D mutant)	KRas wild type + SOS: % inh. (KRas wild type)	KRas wild type: % inh. (KRas wild type)	inhibition at 20 µM (Rac-1) [%]	pIC50 [1]	Compound
D (D = 76-100% inhibition)	D (D = 76-100% inhibition)	D (D = 76-100% inhibition)	D (D = 76-100% inhibition)	76 to 100	> 6.82	COc1ccnc(Nc2nc(-c3nccn3C)nn3cc(-c4cccnc4)c(C)c23)c1 [Compound 157, N-(4-Methoxy-pyridin-2-yl)-5-methyl-2-(1-methyl-1H-imidazol-2-yl)-6-(pyridin-3-yl)pyrrolo[2,1-f][1,2,4]triazin-4-amine]
D (D = 76-100% inhibition)	D (D = 76-100% inhibition)	D (D = 76-100% inhibition)	D (D = 76-100% inhibition)	76 to 100	> 6.82	COc1ccnc(Nc2nc(-c3nccn3C)nn3cc(-c4cccnc4)c(C)c23)n1 [Compound 158, N-(4-Methoxy-pyrimidin-2-yl)-5-methyl-2-(1-methyl-1H-imidazol-2-yl)-6-(pyridin-3-yl)pyrrolo[2,1-f][1,2,4]triazin-4-amine]
0 (0 = 0% inhibition)	0 (0 = 0% inhibition)	0 (0 = 0% inhibition)	A (A = 1-25% inhibition)	0	< 6.00	CO[C@H]1C[C@H](Nc2nc(-c3nccn3C)nn3cc(-c4ccncc4)c(C)c23)C1 [Compound 159, N-((1r,3r)-3-Methoxycyclobutyl)-5-methyl-2-(1-methyl-1H-imidazol-2-yl)-6-(pyridin-4-yl)pyrrolo[2,1-f][1,2,4]triazin-4-amine]
A (A = 1-25% inhibition)	0 (0 = 0% inhibition)	0 (0 = 0% inhibition)	0 (0 = 0% inhibition)	1 to 25	< 6.00	COc1cc(-c2cn3nc(-c4nccn4C)nc(N[C@H]4C[C@H](OC)C4)c3c2C)ccn1 [Compound 160, N-((1r,3r)-3-Methoxycyclobutyl)-6-(2-methoxypyridin-4-yl)-5-methyl-2-(1-methyl-1H-imidazol-2-yl)pyrrolo[2,1-f][1,2,4]triazin-4-amine]
0 (0 = 0% inhibition)	A (A = 1-25% inhibition)	0 (0 = 0% inhibition)	A (A = 1-25% inhibition)	1 to 25	< 6.00	COCCO[C@H]1C[C@H](Nc2nc(-c3nccn3C)nn3cc(-c4ccnc(OC)c4)c(C)c23)C1 [Compound 161, N-((1r,3r)-3-(2-Methoxy-ethoxy)cyclo-butyl)-6-(2-methoxy-pyridin-4-yl)-5-methyl-2-(1-methyl-1H-imidazol-2-yl)pyrrolo[2,1-f][1,2,4]triazin-4-amine]
0 (0 = 0% inhibition)	0 (0 = 0% inhibition)	0 (0 = 0% inhibition)	A (A = 1-25% inhibition)	0	< 6.00	COc1cc(-c2cn3nc(-c4nccn4C)nc(N[C@H]4C[C@@H](OC)C4)c3c2C)ccn1 [Compound 162, N-((1s,3s)-3-Methoxycyclobutyl)-6-(2-methoxypyridin-4-yl)-5-methyl-2-(1-methyl-1H-imidazol-2-yl)pyrrolo[2,1-f][1,2,4]triazin-4-amine]
D (D = 76-100% inhibition)	D (D = 76-100% inhibition)	D (D = 76-100% inhibition)	D (D = 76-100% inhibition)	50 to 75	> 6.82	COc1ccnc(Nc2nc(-c3nccn3C)nn3cc(-c4cnn(C(C)C)c4)c(C)c23)c1 [Compound 165, 6-(1-Isopropyl-1H-pyrazol-4-yl)-N-(4-methoxypyridin-2-yl)-5-methyl-2-(1-methyl-1H-imidazol-2-yl)pyrrolo[2,1-f][1,2,4]triazin-4-amine]
D (D = 76-100% inhibition)	D (D = 76-100% inhibition)	D (D = 76-100% inhibition)	C (C = 50-75% inhibition)	76 to 100	< 6.00	COc1ccnc(Nc2nc(-c3nccn3C)nn3cc(-c4cccnc4)c(-c4ccccn4)c23)c1 [Compound 166, N-(4-Methoxypyridin-2-yl)-2-(1-methyl-1H-imidazol-2-yl)-5-(pyridin-2-yl)-6-(pyridin-3-yl)pyrrolo[2,1-f][1,2,4]triazin-4-amine]
A (A = 1-25% inhibition)	B (B = 26-49% inhibition)	A (A = 1-25% inhibition)	A (A = 1-25% inhibition)	1 to 25	< 6.00	COc1cc(Nc2nc(-c3nccn3C)nn3cc(-c4cccnc4)c(-c4ccccn4)c23)ncn1 [Compound 167, N-(6-Methoxypyrimidin-4-yl)-2-(1-methyl-1H-imidazol-2-yl)-5-(pyridin-2-yl)-6-(pyridin-3-yl)pyrrolo[2,1-f][1,2,4]triazin-4-amine]
A (A = 1-25% inhibition)	B (B = 26-49% inhibition)	A (A = 1-25% inhibition)	A (A = 1-25% inhibition)	1 to 25	< 6.00	CO[C@H]1C[C@H](Nc2nc(-c3nccn3C)nn3cc(-c4cccnc4)c(-c4ccccn4)c23)C1 [Compound 168, N-((1r,3r)-3-Methoxycyclobutyl)-2-(1-methyl-1H-imidazol-2-yl)-5-(pyridin-2-yl)-6-(pyridin-3-yl)pyrrolo[2,1-f][1,2,4]triazin-4-amine]
D (D = 76-100% inhibition)	D (D = 76-100% inhibition)	D (D = 76-100% inhibition)	D (D = 76-100% inhibition)	76 to 100	> 6.82	COc1ccnc(Nc2nc(-c3nccn3C)nn3cc(-c4cccnc4)c(-c4cccnc4)c23)c1 [Compound 169, N-(4-methoxypyridin-2-yl)-2-(1-methyl-1H-imidazol-2-yl)-5,6-di(pyridin-3-yl)pyrrolo[2,1-f][1,2,4]triazin-4-amine]
